Assay results as given in patent US5045558A, “N-substituted imidazoles and their use in pharmaceutical agents” (Schering Aktiengesellschaft, priority 1988, dated 1991).

Experiments:
11beta-hydroxylase = molecular target: T1, 11beta-hydroxylase (Bos taurus, UniProt P15150); assay: Test B: Determination of 11-beta Hydroxylase Activity (mitochondria from bovine suprarenals); assay type: biochemical; settings: for IC50: Test B, bovine suprarenal mitochondria, substrate concentration corresponds to apparent Km; for selectivity of aromatase inhibition (in words): aromatase vs other enzyme systems (11beta-hydroxylase), in comparison with compound 1 / compounds known so far
T1 construct: mitochondria, obtained from bovine suprarenals; from tissue; host or cells: bovine suprarenals (adrenal glands), mitochondria
T1 sequence (P15150 25-503): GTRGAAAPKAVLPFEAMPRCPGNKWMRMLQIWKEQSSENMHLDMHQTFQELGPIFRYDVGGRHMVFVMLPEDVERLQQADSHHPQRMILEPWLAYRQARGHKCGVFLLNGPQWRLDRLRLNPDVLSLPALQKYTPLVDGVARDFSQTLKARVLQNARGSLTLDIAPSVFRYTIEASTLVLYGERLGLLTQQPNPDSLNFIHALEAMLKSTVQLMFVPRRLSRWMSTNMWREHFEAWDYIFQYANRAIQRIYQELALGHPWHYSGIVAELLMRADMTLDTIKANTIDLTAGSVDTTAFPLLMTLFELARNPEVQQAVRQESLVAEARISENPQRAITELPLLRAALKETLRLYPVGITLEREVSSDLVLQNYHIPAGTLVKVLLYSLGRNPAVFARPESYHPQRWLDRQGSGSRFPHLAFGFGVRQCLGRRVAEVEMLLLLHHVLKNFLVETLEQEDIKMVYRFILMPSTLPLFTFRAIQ
Procedure: Determination of 11-beta Hydroxylase Activity
The 11beta-hydroxylase activity is measured on mitochondria, obtained from bovine suprarenals. The reaction of [1,2-^3 H]-17alpha-hydroxy-11-deoxycorticosterone in cortisol is determined by thin-film chromatography of the resulting reaction products according to a method of Mitani et al (J. Biol. Chem 250, 8010-15 (1975)). The concentration of the examined compound is determined, in which the reaction is inhibited by 50%, and the substrate concentration corresponds to the apparent Km value.

aromatase = molecular target: T2, aromatase (Homo sapiens, UniProt P11511); assay: Test A: Determination of Aromatase Activity (release of tritium-labeled water, human placenta microsomes); assay type: biochemical; settings: for Ki: Test A, human placenta microsomes, Dixon method; for inhibition of aromatase (in words): in comparison with compound 1 / compounds known so far
T2 construct: microsomes obtained from human placenta; from tissue; host or cells: human placenta, microsomes
T2 sequence (P11511 1-503): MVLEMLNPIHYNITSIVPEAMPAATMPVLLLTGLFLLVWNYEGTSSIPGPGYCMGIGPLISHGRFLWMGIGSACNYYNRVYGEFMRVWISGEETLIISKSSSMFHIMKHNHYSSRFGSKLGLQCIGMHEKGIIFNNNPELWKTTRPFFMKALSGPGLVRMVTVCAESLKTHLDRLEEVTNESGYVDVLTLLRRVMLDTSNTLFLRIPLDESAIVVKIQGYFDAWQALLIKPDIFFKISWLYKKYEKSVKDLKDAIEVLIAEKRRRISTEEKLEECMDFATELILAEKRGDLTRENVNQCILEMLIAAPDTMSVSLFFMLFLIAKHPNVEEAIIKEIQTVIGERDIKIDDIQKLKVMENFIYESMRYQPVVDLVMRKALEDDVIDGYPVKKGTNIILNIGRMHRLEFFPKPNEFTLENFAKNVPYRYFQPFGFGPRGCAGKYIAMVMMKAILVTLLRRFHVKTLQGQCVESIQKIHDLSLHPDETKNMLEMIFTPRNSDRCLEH
Procedure: Determination of Aromatase Activity
The capabilities of compounds to inhibit the enzyme system of aromatase is tested on microsomes obtained from human placenta. The release of tritium-labeled water (^3 H2 O), which is released as reaction product in the aromatizing of (1beta-^3 H) androstrenedione to estrogen, is measured according to the methods of Thompson and Siiteri (J. Biol. Chem. Z49, 5364-72 (1974)). The corresponding inhibition values (K1, aromatase) are determined according to the method of Dixon (Biochem. J. 94, 760 (1965) by graphic determination of the application of 1/v against the inhibition concentration.

Compound: CCCC(c1ccc(C#N)cc1)n1ccnc1 (stereo not shown) [Compound 1, 4-[1-(1-imidazolyl)-butyl]-benzonitrile, reference compound]
- IC50 (11beta-hydroxylase): 94 nM
- Ki (aromatase): 1.1 nM

Compound: CCCCCC(=O)c1ccc(C(CCC)n2ccnc2)cc1 (stereo not shown) [Compound 2, [4-[1-(1-Imidazolyl)-butyl]-phenyl]-pentylketone]
- IC50 (11beta-hydroxylase): 1500 nM
- selectivity of aromatase inhibition (in words) (11beta-hydroxylase): more selective effectiveness
- Ki (aromatase): 0.42 nM
- inhibition of aromatase (in words) (aromatase): stronger inhibition actions of aromatase than compound 1

Compound: CCCCOC(=O)c1ccc(C(CCC)n2ccnc2)cc1 (stereo not shown) [Compound 3, 4-[1-(1-imidazolyl)-butyl]-benzoic acid butyl ester]
- IC50 (11beta-hydroxylase): 750 nM
- selectivity of aromatase inhibition (in words) (11beta-hydroxylase): more selective effectiveness
- Ki (aromatase): 0.87 nM
- inhibition of aromatase (in words) (aromatase): stronger inhibition actions of aromatase than compound 1
